Data on 4 molecules can be found in patent US8409166B2, “Method for pressure mediated selective delivery of therapeutic substances and cannula” (The United States of America as represented by the …, priority 1998, dated 2013).

Series [1] relates to intrahepatic tight junctions. Kind of series: Constant pressure retrograde biliary infusion in mice (flow rate, resistance, paracellular leakage). As to conditions: for Ave Counts (paracellular leakage): Cholestatic 04 day mice. The source says: FIG. 35 is a diagram of a working example of a system for constant-pressure intralumenal delivery. […] A working model was regulated using an adaptation of a Cole-Palmer pressure controller. Infusion fluid from the reservoir flows through capillary glass tubes 224 on its way to an infusion line 226. Flow rates may then be determined by tracking air bubbles 228 in the capillary glass tubes 224 with a ruler 229. A pressure sensor 230 detects the pressure of the infusion fluid at a location near the infusion line 226.
To set up the system, fluid was added to the reservoir, and the system was rinsed and filled with fluid. The infusion line 226 was then surgically placed into the animal's organ. […] By adjusting the controller setting the desired pressure could be obtained at the pressure sensor, which was kept at the same height (z=0) as the animal. The reading at the pressure sensor was thus equal to the applied pressure (the pump pressure) plus the pressure head (the pressure increase due to the change in height between the top of the liquid level in the reservoir and the height of the infusion line). The infusion line was kept at the same height as the pressure sensor and the animal on the operating table. Alternate systems could be of course be adapted in which a constant pressure is maintained at the pressure sensor and not at the top of the Reservoir. This would be most important when a large volume of fluid is infused.
The flow rate of infusion fluid was experimentally recorded in the following way: the cross sectional area of the bubble tube was determined by injecting a known volume of water (from syringe 232) into a measured length of the bubble tube. The cross sectional area was 0.0233 cm^2 (0.35 cc in 15 cm). When the flow started, an air bubble was slowly injected into the infusion fluid flow. The bubble then traveled down the bubble tube. At the end of the tube, the bubble would rise up into the bubble trap 234 and displace an equal volume of liquid. For each bubble 25 time points were recorded, on 1-cm intervals of ruler 229. The time versus distance that the bubble had traveled could be plotted and the slope of this line was the velocity of the bubble. Multiplying the slope by the cross sectional area of the bubble tube gave the average flow rate of the infusion fluid. This method of flow rate measurement is a working and experimental model for the purpose of illustration. In practice, flow rates may also be determined by ultrasonic or other methods known to those of skill in the art.
Constant pressure infusion was evaluated in mice using the retrograde biliary infusion setup described previously. The constant pressure device was substituted for the microinfusion pump. […] Infusion flow rates were recorded using the bubble tube method described above. Blood samples were obtained and evaluated as described above.
Solutes evaluated included sucrose (molecular weight 370), inulin (molecular weight 5,200), and Dextran (molecular weight 70,000).

For series [2], the system named is interhepatocyte tight junctions. As to the kind of experiment: Retrograde biliary infusion of lanthanum chloride, electron microscopy of intrahepatic distribution. It counts as in vivo, mice. To be noted: 720 μl of 5 mM at 2 or 8 μl/second. On the procedure: Movement of fluid from the intralumenal space may conceivably occur either directly across physically opened tight junctions or indirectly by altered rates of transepithilial transcytosis. […] The ability of retrograde biliary infusion to disrupt tight junctions was evaluated by qualitative ultrastructural examination of the intrahepatic distribution of lanthanum chloride, a heavy metal normally impermeant to structurally intact tight junctions.
Animals were infused retrograde with either 5 mM lanthanum chloride (Sigma) or 0.9% NaCl vehicle. Three infusions of 240 μl volume were administered per animal at a rate of 2 or 8 μl/second, with a 10 second pause between infusions. Freshly removed tissue was fixed overnight in 2% glutaraldehyde in 0.2 M cacodylate buffer. Following standard processing and embedding, 0.5 micrometer thick sections were stained with uranyl acetate and lead citrate. Sections were then examined using a Philips 201 Electron Microscope.

In series [3] the test system is urinary bladder epithelial cell tight junctions. Kind of series: Intralumenal delivery to the rabbit urinary bladder (electron and fluorescent microscopy). Type of series: in vivo, Dutch Belted Rabbits. To be noted: 5 mM, 10 minutes. An excerpt:
As an experimental model to mimic retrourethral delivery, male Dutch Belted Rabbits (1-2 Kg BW) had PE-50 tubing placed in the lumen of each […] and advanced so that the tips were within the lumen of the urinary bladder. One ureteral catheter was connected to a pressure transducer and used for recording intralumenal pressure. The other ureteral catheter was connected to a microinfusion pump. Microvascular clips were placed on the ureters to prevent retrograde reflux. The urethra was occluded using a vascular loop. 5 mM Lanthanum Chloride was infused so that the intralumenal pressure was either 25 mm Hg or 50 mm Hg.
Tissues were removed 10 minutes later and processed for electron microscopy. […] Following the administration of 200 nm fluorescent latex microspheres at 50 mm-[…] intralumenal pressure, the urinary bladder was removed and processed for fresh-frozen sections.

Where [4] appears, read: constant pressure retrograde biliary infusion.

In the case of `OC[C@H]1O[C@@](CO)(O[C@H]2O[C@H](CO)[C@@H](O)[C@H](O)[C@H]2O)[C@@H](O)[C@@H]1O` [[14C]-sucrose], in series [1] (mouse, in vivo), the “appearance in systemic bloodstream” value was “detected in the systemic bloodstream”.

Take `[Cl][La]([Cl])[Cl]` [lanthanum chloride]: in series [2], the “electron dense deposits at bile ducts” value is recorded as “found within bile ducts but not in their adjacent subepithelial tissue compartments”; the “electron dense deposits at canaliculi and subepithelial compartments” value is “within biliary canaliculi, interhepatocyte cell spaces, and the perisinusoidal Space of Disse”. In addition, the “electron microscopy finding in urinary bladder” value in series [3] (intralumenal pressure 25 mm Hg) is given as “electron dense deposits were detected in the intercellular spaces between epithelial cells”. For the same molecule, the “electron microscopy finding in urinary bladder” value in series [3] (intralumenal pressure 50 mm Hg) is “some evidence of patchy epithelial denudation”.

On to Dextran, for which the “appearance in systemic bloodstream” value in series [1] (setting [4]) is on record as “detected in the systemic bloodstream”.

Turning to [14C]-inulin, the “Ave Counts (paracellular leakage)” value was determined as 27 in series [1] (10 mmHg), 2534 in series [1] (20 mmHg) and 20134 in series [1] (40 mmHg). The “appearance in systemic bloodstream” value in series [1] (setting [4]) is given as “detected in the systemic bloodstream”.
